Data as given in patent publication US20150140005A1, “Methods and Uses for Proprotein Convertase Subtilisin Kexin 9 (PCSK9) Inhibitors” (Cyon Therapeutics Inc., priority 2012, published 2015).

Columns and labels:
[1] = tested on: LPS treated LDLR−/− mice; experiment: Responses to LPS treatment (lipopolysaccharide induced systemic inflammation) in LDLR−/− mice treated with saline or berberine; assay type: in vivo
Protocol: Healthy mice had activity level, body temperature, blood pressure, and cardiac function (echocardiography) assessed at baseline (time 0) as detailed below. Mice were then injected intra-peritoneally with LPS (20 mg/kg, E. coli strain 01 II: B4, Sigma™, St. Louis, Mo.). This dose was determined from previous experiments where, in the background strain of C57BL/6 mice, LPS 20 mg/kg delivered intra-peritoneally was the lowest dose, which was lethal in all cases within 12 hours^24. Then activity level and temperature were measured every hour for six hours. At six hours blood pressure was measured by invasive arterial cannulation and cardiac function (echocardiography) was assessed again.
Activity Index: Mice were observed during 2 minutes for posture and activity. 0 (normal) denotes that there are no times with a hunched posture, and the mouse had spontaneous rapid movements interspersed with eating and drinking. 1 (mild) is occasional brief (5-20 seconds) hunched posture, which spontaneously reverted to normal with ongoing spontaneous rapid movements interspersed with eating and drinking. 2 (mild-moderate) was longer (>20 seconds) in the hunched posture which spontaneously reverted to normal with ongoing spontaneous rapid movements interspersed with eating and drinking. 3 (moderate-severe) was nearly continual hunched posture with movement only when subjected to strong external stimuli. 4 (severe) was continual hunched posture without movement.
Temperature: Temperature was measured hourly using an infra-red thermometer (IR-101 La Crosse Technology, La Crosse USA)) held 2-3 mm from the abdomen.
Blood Pressure: At baseline (time 0) mean arterial blood pressure was measured using a non-invasive tail cuff (CODA 2™, Kent Scientific, Torrington, USA). Six hours after LPS injection, mice were anesthetized using inhaled isofluorane (1-3%). Following a small laparatomy, the abdominal aorta was punctured using a 27 gauge needle then a number 2 French micromanometer catheter (Mikro-tip SPR-838™, Millar Instruments Inc., Houston, Tex.) was inserted into the aorta. Mean arterial pressure was derived using analysis software (PVAN 2.9™, Millar Instruments Inc.).
Echocardiography: Mice were lightly anaesthetized using inhaled isofluorane (1-3%) and placed on a warming blanket. M-mode echocardiograms (ECHO) were targeted from 2D echos obtained using the Vevo 770 ECHO (Visualsonics™, Toronto, ON, Canada) operating at a 120 Hz frame rate. Left parasternal 2D left ventricular cross-sectional echocardiographic images were obtained. The position and angle of the echo transducer is maintained by directing the beam just off the tip of the anterior leaflet of the mitral valve and by maintaining internal anatomic landmarks constant. All measurements are taken from M-mode traces at end-expiration. Left ventricular internal dimensions were measured at end-diastole (defined as the onset of the QRS complex in lead II of the simultaneously obtained electrocardiogram) and at end-systole (defined as minimum internal ventricular dimension).
This is consistent with the hypothesis that the benefit derived from the inhibition of PCSK9 is the result of increased availability of LDLR and a subsequent reduction in plasma LDL.

[2] = tested on: PCSK9; details: intravenous infusion, as early as 8 hours after injection, non-human primates; cited from earlier work
[3] = LDLR−/− mice, 6 hrs after LPS, median (95% CI), n = 4
[4] = LDLR−/− mice, baseline, median (95% CI), n = 4

| Molecule | Activity 6 hrs LPS [1, 3] | EF 6 hrs LPS [1, 3] | MAP 6 hrs LPS [1, 3] | Activity Baseline [1, 4] | MAP Baseline [1, 4] | Temp. Baseline [1, 4] | Differences between saline and berberine mice in responses to LPS ([1]; LPS treated LDLR−/− mice, berberine vs saline) | Circulating LDL-C levels [2] |
| --- | --- | --- | --- | --- | --- | --- | --- | --- |
| COc1ccc2cc3[n+](cc2c1OC)CCc1cc2c(cc1-3)OCO2 [Berberine, berberine] | 0 (−0.8-0.3) | 26.0 (23.0-29.0) | 53 (52-54) | 0 (0-0) | 109 (93-125)^ | 37.0 (36.2-37.9) | minimal differences | – |
| AMG145: Amgen monoclonal antibody specific for the catalytic domain of PCSK9 (antibody, chains of the INN, looked up, V domains shown) VH: EVQLVQSGAEVKKPGASVKVSCKASGYTLTSYGISWVRQAPGQGLEWMGWVSFYNGNTNYAQKLQGRGTMTTDPSTSTAYMELRSLRSDDTAVYYCARGYGMDVWGQGTTVTVSS VL: ESALTQPASVSGSPGQSITISCTGTSSDVGGYNSVSWYQQHPGKAPKLMIYEVSNRPSGVSNRFSGSKSGNTASLTISGLQAEDEADYYCNSYTSTSMVFGGGTKLTVL | – | – | – | – | – | – | – | significant reduction |
